From patent US10617735B2, “Methods and compositions for preserving retinal ganglion cells” (Massachusetts Eye and Ear Infirmary, priority 2010, dated 2020)

Assays:
Type in all cases: in vivo, mouse
[1] = tested on: retinal ganglion cells (RGCs); assay: Brn3b immunohistochemistry (viable RGCs) after ON injury; conditions: seven days after ON injury; intravitreal 3-MA (33.3 mM); effect less than ZVAD plus Nec-1
From the text: Two mouse models of RGC death were utilized: optic nerve (ON) injury and N-methyl-D-aspartate (NMDA) retinal excitotoxicity. ON injury leads to RGC death as a result of primary damage to the axons, with its ensuing disruption of retrograde axonal transport (Libby et al., (2005) PLOS GENET 1:17-26) and is used as an RGC death model. In the ON injury model, mice were anesthetized and subjected to severe crush injury at 1-2 mm distance from the eyeball for 15 seconds using cross-action forceps taking special care not to interfere with the blood supply (Levkovitch-Verbin, (2004) EYE 18:1066-1074). Injured mice were randomly divided into 4 groups for treatment: vehicle group (0.5% DMSO and 0.8% cyclodextrin in PBS, n=6), ZVAD group (300 n=6), Nec-1 group (4 mM, n=6), and ZVAD plus Nec-1 group (n=6). Soon after injury, each group received an intravitreal injection (2 μl) with the respective compounds. In the NMDA retinal excitotoxicity model, NMDA (2 μl of a 0.1M stock; Sigma-Aldrich) was injected intravitreously in combination with ZVAD, Nec-1, or ZVAD plus Nec-1 and mice were separated into the aforementioned 4 groups. […]

[2] = tested on: retinal ganglion cells (RGCs); assay: TUNEL staining after ON injury; conditions: one day after ON injury; intravitreal 3-MA (33.3 mM); compared to non-treated mice
From the text: Two mouse models of RGC death were utilized: optic nerve (ON) injury and N-methyl-D-aspartate (NMDA) retinal excitotoxicity. ON injury leads to RGC death as a result of primary damage to the axons, with its ensuing disruption of retrograde axonal transport (Libby et al., (2005) PLOS GENET 1:17-26) and is used as an RGC death model. In the ON injury model, mice were anesthetized and subjected to severe crush injury at 1-2 mm distance from the eyeball for 15 seconds using cross-action forceps taking special care not to interfere with the blood supply (Levkovitch-Verbin, (2004) EYE 18:1066-1074). […] Soon after injury, each group received an intravitreal injection (2 μl) with the respective compounds. In the NMDA retinal excitotoxicity model, NMDA (2 μl of a 0.1M stock; Sigma-Aldrich) was injected intravitreously in combination with ZVAD, Nec-1, or ZVAD plus Nec-1 and mice were separated into the aforementioned 4 groups. The dose of these compounds was selected based on previous studies (Karl et al., (2008) PROC NATL ACAD SCI USA 105:19508-19513; Knoferle et al., (2010) PROC NATL ACAD SCI USA 107:6064-6069; Nakazawa et al., (2006) J NEUROSCI 26:12633-12641; Rosenbaum et al., (2010) J NEUROSCI RES 88:1569-1576).
Intravitreal injections were performed as follows. Briefly, the tip of a 33 gauge needle (Hamilton, Reno, Nev.) was carefully inserted through the sclera into the intravitreal space to reduce intraocular pressure. Then, the needle was extracted, loaded with compounds and tangentially reinserted through the sclera into the intravitreal space, inducing a self-sealing wound tunnel. After injection, the absence of choroidal bleeding was confirmed. At specified times after injury, mice were sacrificed with an overdose of sodium pentobarbital, and eyes were enucleated.

[3] = tested on: retinal ganglion cells (RGCs); assay: IPL thickness and GCL with IPL thickness after ON injury (immunohistochemistry, SD-OCT); conditions: seven days after ON injury; intravitreal 3-MA (33.3 mM); effect less than ZVAD plus Nec-1
Experimental: An anti-TNF-α neutralizing antibody (0.1 mg/ml) or a control antibody was injected into the vitreous of mice that underwent ON injury. One week following injection, the number of RGCs were measured. In addition, inner plexiform layer (IPL) thickness (a location of RGC axons) was also assessed. Specifically, eyes were enucleated and RGC loss was quantified from histological sections of mouse retina. Only transverse sections involving the optic disc were used for analysis and the fields corresponding to approximately 400 μm of both sides of retina extending from the ON head (2 points/section×3 sections per eye, n=6) were examined with an optical microscope (×40 objectives). IPL thickness was measured with OpenLab software (Open Lab, Florence, Italy) (2 points/section×3 sections per eye, n=6). The ratio of IPL thickness was calculated as a percentage of IPL thickness in the normal mouse eyes (n=6).
Inner plexiform layer (IPL) thickness and ganglion cell layer (GCL) with IPL thickness (location of RGC cell bodies and axons) were measured using immunohistochemistry and a Spectral Domain Optical Coherence Tomography (SD-OCT) system (Bioptigen Inc., Durham, N.C.). […] The thickness of GCL+IPL was assessed at 500 μm, 400 μm, 300 μm distance from the ON head (nasally and temporally) as well as at 200 μm, 400 μm above and below the ON head.

ROS = assay: Protein carbonyl contents in retina after ON injury (ELISA); conditions: one day after ON injury; intravitreal 3-MA; compared with untreated control
Experimental: It has been reported that RIP kinases control ROS generation during programmed necrosis (Cho et. al., (2009) CELL 137:1112-1123, Zhang et al., (2009) SCIENCE 325:332-336)). To investigate whether ROS play a roll in oxidative retinal damage after ON injury, protein level of carbonyl contents was analyzed using ELISA using the OxiSelect™ Protein Carbonyl ELISA Kit (Cell Biolabs, San Diego, Calif.).
To investigate the role of autophagy in RGC death after ON injury, we examined the effect of 3-methyladenine (3-MA) on RGCs death after ON injury. 3-MA inhibits autophagosome formation (Seglen and Gordon, (1982) PROC NATL ACAD SCI USA 79:1889-1892)). One day after ON injury, TUNEL assay was performed. […] In addition, the number of Brn3b positive cells and IPL thickness were also analyzed. […] To investigate whether ROS play a role in oxidative retinal damage after ON injury, protein level of carbonyl contents was analyzed using an ELISA kit (Cell Biolabs, San Diego, Calif.) according to the manufacturer's instructions. One day after ON injury, carbonyl contents decreased in the 3-MA treated group compared with untreated control (FIG. 10F).

In the case of `Cn1cnc(N)c2ncnc1-2` [3-MA, 3-methyladenine], the “reduction of Brn3b positive cells” value [1] is reported as “significantly prevented the reduction”, the “number of TUNEL positive cells” value [2] is reported as “small but statistically significant decline” and the “reduction of IPL thickness ratio” value [3] is reported as “significantly prevented the reduction”. The “carbonyl contents (protein level, ELISA)” value (ROS) was “decreased”.
